Reference: publication PMC3340383, “Synthesis and Evaluation of a Series of 2-Substituted-5-Thiopropylpiperazine (Piperidine)-1,3,4-Oxadiazoles Derivatives as Atypical Antipsychotics” (PLoS ONE, 2012)

System: apomorphine-induced climbing behavior in mice
Assay: Apomorphine-induced climbing
Format: in vivo
Conditions: Mus musculus, po, read-out: Apomorphine-induced climbing ED50 (A)
Experimental: . […] . Animals were then challenged at 30 minutes post-injection with 1.0 mg/kg of the apomorphine in 0.9% NaCl+0.1% ascorbic acid, placed in cylindrical wire cages (12 cm in diameter, 14 cm in height), and observed for climbing behavior at 10, 20 and 30 min post dose. The climbing behaviour was scored as follows: 3–4 paws on the cage floor = 0 score; 2 and 3 paws on the cage = 1 score; 4 paws on the cage = 2 score.

Cc1nc2n(c(=O)c1CCN1CCC(c3noc4cc(F)ccc34)CC1)CCCC2 [risperidone]
ED50: 0.02 mg/kg
